Experimental findings from US12129237B2, “Substituted diaminocarboxamide and diaminocarbonitrile pyrimidines, compositions thereof, and methods of treatment therewith” (SIGNAL PHARMACEUTICALS, LLC, priority 2011, dated 2024) are described below.

The target in one experiment is T1, JNK1 (Homo sapiens, UniProt P45983).
T1 construct: purchased Carna Biosciences
T1 sequence (P45983 whole entry): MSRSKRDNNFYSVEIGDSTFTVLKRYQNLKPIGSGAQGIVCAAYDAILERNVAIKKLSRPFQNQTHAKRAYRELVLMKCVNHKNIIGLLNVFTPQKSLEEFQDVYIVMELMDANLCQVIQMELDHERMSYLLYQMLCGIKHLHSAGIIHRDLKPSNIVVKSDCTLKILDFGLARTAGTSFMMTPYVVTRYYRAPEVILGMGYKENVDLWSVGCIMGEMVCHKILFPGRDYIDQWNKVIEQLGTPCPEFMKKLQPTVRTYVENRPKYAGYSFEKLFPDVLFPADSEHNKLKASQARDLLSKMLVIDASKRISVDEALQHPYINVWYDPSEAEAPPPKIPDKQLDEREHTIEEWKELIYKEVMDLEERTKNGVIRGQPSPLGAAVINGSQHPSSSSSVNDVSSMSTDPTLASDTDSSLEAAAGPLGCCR
The experiment is described as follows: JNK1 biochemical assays (one or more of: time resolved fluorescence, Z'-LYTE Cascade, radioactive). As to conditions: Table 2; JNK1 IC50 activity level; read-out: Act. Level.
As to `CC1CCC(Nc2ncc(C(N)=O)c(Nc3ccccc3)n2)CC1` (stereo not drawn) [Example B-47, 2-(4-methylcyclohexylamino)-4-(phenylamino)pyrimidine-5-carboxamide], the IC50 was under 200 nM.
On the same count and under the same terms, under `NC(=O)c1cnc(NC2CCOCC2)nc1Nc1ccc2ncccc2c1` [Example B-2, 4-(quinolin-6-ylamino)-2-(tetrahydro-2H-pyran-4-ylamino)pyrimidine-5-carboxamide] stands under 200 nM.

Still in this experiment, the particulars now being: Table 3; JNK1 IC50 activity level; read-out: Act. Level.
For `CCO[C@H]1CC[C@H](Nc2ncc(C#N)c(N[C@H]3CC[C@H](O)CC3)n2)CC1` [Example C-25, 2-((1r,4r)-4-ethoxycyclohexylamino)-4-((1r,4r)-4-hydroxycyclohexylamino) pyrimidine-5-carbonitrile], the IC50 lay within 800 to 1000 nM.
On the same count and under the same terms, under `CC(C)(C)Nc1ncc(C#N)c(NC(C)(C)C)n1` [Example C-63, 2,4-bis(tert-butylamino)pyrimidine-5-carbonitrile] stands 200 to 800 nM.
Still for that read-out and setting: the result for `CN(C)C(=O)[C@H]1CC[C@H](Nc2ncc(C#N)c(N[C@@H]3CCCC[C@H](O)C3)n2)CC1` [Example C-45, (1R,4r)-4-(5-cyano-4-((1R,3S)-3-hydroxycycloheptylamino)pyrimidin-2-ylamino)-N,N-dimethylcyclohexanecarboxamide] reads under 200 nM; that for `CO[C@H]1CC[C@H](Nc2ncc(C#N)c(N[C@@H]3CCC[C@@H]3CO)n2)CC1` [Example C-16, 4-((1R,2S)-2-(hydroxymethyl)cyclopentylamino)-2-((1r,4R)-4-methoxycyclohexylamino) pyrimidine-5-carbonitrile], under 200 nM.

Still in this experiment, the particulars now being: one or more of the JNK1 biochemical assays; read-out: Act. Level (JNK1 IC50 activity level).
Turning to `CC(=O)N[C@H]1CC[C@H](Nc2ncc(C(N)=O)c(NC(C)C)n2)CC1` [Example 203, 2-((1r,4r)-4-acetamidocyclohexylamino)-4-(isopropylamino)pyrimidine-5-carboxamide], the IC50 was under 200 nM.
Take `CC1(Nc2ncc(C(N)=O)c(N[C@@H]3CCC[C@H](O)C3)n2)CCC1` [Example 354, 4-((1R,3S)-3-hydroxycyclohexylamino)-2-(1-methylcyclobutylamino)pyrimidine-5-carboxamide]: the IC50 is under 200 nM.
Regarding `CC1CCC1Nc1nc(N[C@H]2CC[C@H](OCC(F)(F)F)CC2)ncc1C(N)=O` (stereo partly drawn) [Example 256, 4-(2-methylcyclobutylamino)-2-((1r,4r)-4-(2,2,2-trifluoroethoxy)cyclohexylamino)pyrimidine-5-carboxamide], the IC50 was under 200 nM.
On to `CC(C)(Nc1nc(N[C@H]2CC[C@H](O)CC2)ncc1C(N)=O)C1CC1` [Example 316, 4-(2-cyclopropylpropan-2-ylamino)-2-((1r,4r)-4-hydroxycyclohexylamino)pyrimidine-5-carboxamide], for which the IC50 was under 200 nM.
Same read-out and setting: under `NC(=O)c1cnc(N[C@H]2CC[C@H](O)CC2)nc1NC1COC1` [Example 235, 2-((1r,4r)-4-hydroxycyclohexylamino)-4-(oxetan-3-ylamino)pyrimidine-5-carboxamide] stands under 200 nM.
`CCCC(C)(C)Nc1nc(N[C@H]2CC[C@H](O)CC2)ncc1C(N)=O` [Example 390, 2-((1r,4r)-4-hydroxycyclohexylamino)-4-(2-methylpentan-2-ylamino)pyrimidine-5-carboxamide]: the IC50 is under 200 nM.
The same measure, in the same setting: under `NC(=O)c1cnc(N[C@H]2CC[C@H](O)CC2)nc1NC12CC(C(F)(F)F)(C1)C2` [Example 440, 2-((1r,4r)-4-hydroxycyclohexylamino)-4-(3-(trifluoromethyl)bicyclo[1.1.1]pentan-1-ylamino)pyrimidine-5-carboxamide] stands under 200 nM.
With `CCC(C)(C)Nc1nc(NC23CCC(O)(CC2)C3)ncc1C(N)=O` [Example 452, 2-(4-hydroxybicyclo[2.2.1]heptan-1-ylamino)-4-(tert-pentylamino)pyrimidine-5-carboxamide], the IC50 is under 200 nM.
Turning to `C[C@@H](Nc1nc(N[C@H]2CC[C@H](OCC(F)(F)F)CC2)ncc1C(N)=O)C1CC1` [Example 409, 4-((R)-1-cyclopropylethylamino)-2-((1r,4R)-4-(2,2,2-trifluoroethoxy)cyclohexylamino)pyrimidine-5-carboxamide], the IC50 is under 200 nM.
On the same count and under the same terms, the result for `NC(=O)c1cnc(N[C@H]2CC[C@H](O)CC2)nc1NC1CC(F)(F)C1` [Example 217, 4-(3,3-difluorocyclobutylamino)-2-((1r,4r)-4-hydroxycyclohexylamino)pyrimidine-5-carboxamide] reads under 200 nM; that for `NC(=O)c1cnc(NC2CCCC(O)CC2)nc1NC1CCC1` (stereo not drawn) [Example 249, 4-(cyclobutylamino)-2-(4-hydroxycycloheptylamino)pyrimidine-5-carboxamide], under 200 nM; that for `NC(=O)c1cnc(N[C@H]2CC[C@H](OC(F)F)CC2)nc1NC12CC(C1)C2` [Example 420, 4-(bicyclo[1.1.1]pentan-1-ylamino)-2-((1r,4r)-4-(difluoromethoxy)cyclohexylamino)pyrimidine-5-carboxamide], under 200 nM.
Same read-out and setting: the result for `NC(=O)c1cnc(N[C@H]2CC[C@H](OC3CC3)CC2)nc1NC12CC(C1)C2` [Example 368, 4-(bicyclo[1.1.1]pentan-1-ylamino)-2-((1r,4r)-4-cyclopropoxycyclohexylamino)pyrimidine-5-carboxamide] reads under 200 nM; that for `CCO[C@H]1CC[C@H](Nc2ncc(C(N)=O)c(N[C@H]3C[C@H](C)C3)n2)CC1` [Example 313, 2-((1r,4r)-4-ethoxycyclohexylamino)-4-((1r,3r)-3-methylcyclobutylamino)pyrimidine-5-carboxamide], under 200 nM.
Same read-out and setting: under `CO[C@H]1CC[C@H](Nc2ncc(C(N)=O)c(N[C@H](C)C(C)C)n2)CC1` [Example 291, 2-((1r,4R)-4-methoxycyclohexylamino)-4-((R)-3-methylbutan-2-ylamino)pyrimidine-5-carboxamide] stands under 200 nM; under `CC1(Nc2nc(N[C@H]3CC[C@H](O)CC3)ncc2C(N)=O)CCC1` [Example 239, 2-((1r,4r)-4-hydroxycyclohexylamino)-4-(1-methylcyclobutylamino)pyrimidine-5-carboxamide], under 200 nM.
Take `C[C@@H]1CC[C@@H](Nc2nc(N[C@H]3CC[C@H](OC4CC4)CC3)ncc2C(N)=O)C[C@H]1O` [Example 492, 2-((1r,4R)-4-cyclopropoxycyclohexylamino)-4-((1R,3R,4R)-3-hydroxy-4-methylcyclohexylamino)pyrimidine-5-carboxamide]: the IC50 was under 200 nM.
Turning to `CN(C)C(=O)[C@H]1CC[C@H](Nc2ncc(C(N)=O)c(NC(C)(C)C3CC3)n2)CC1` [Example 480, 4-(2-cyclopropylpropan-2-ylamino)-2-((1r,4r)-4-(dimethylcarbamoyl)cyclohexylamino)pyrimidine-5-carboxamide], the IC50 was under 200 nM.
As for `CC1(Nc2nc(NC34CCC(O)(CC3)CC4)ncc2C(N)=O)CCC1` [Example 412, 2-(4-hydroxybicyclo[2.2.2]octan-1-ylamino)-4-(1-methylcyclobutylamino)pyrimidine-5-carboxamide], the IC50 was under 200 nM.
In the case of `C[C@H]1C[C@H](Nc2nc(N[C@H]3CC[C@H](O)CC3)ncc2C(N)=O)C1` [Example 325, 2-((1r,4r)-4-hydroxycyclohexylamino)-4-((1r,3r)-3-methylcyclobutylamino)pyrimidine-5-carboxamide], the IC50 was under 200 nM.
The same measure, in the same setting: under `C[C@@H](Nc1nc(N[C@H]2CC[C@H](O)CC2)ncc1C(N)=O)C1CCC1` [Example 298, 4-((R)-1-cyclobutylethylamino)-2-((1r,4R)-4-hydroxycyclohexylamino)pyrimidine-5-carboxamide] stands under 200 nM; under `CCCC(C)(C)Nc1nc(N[C@H]2CC[C@H](OC)CC2)ncc1C(N)=O` [Example 392, 2-((1r,4r)-4-methoxycyclohexylamino)-4-(2-methylpentan-2-ylamino)pyrimidine-5-carboxamide], under 200 nM.
For the molecule `NC(=O)c1cnc(N[C@H]2CC[C@H](O)CC2)nc1NCC1CCC1` [Example 221, 4-(cyclobutylmethylamino)-2-((1r,4r)-4-hydroxycyclohexylamino)pyrimidine-5-carboxamide], the IC50 was under 200 nM.

Still in this experiment, the particulars now being: tested in one or more of the JNK1 biochemical assays; read-out: Act. Level (JNK1 biochemical assay IC50 activity level).
On to `CC(C)CC(=O)N[C@H]1CC[C@@H](Nc2nc(NC3CC3)ncc2C(N)=O)CC1` [Example A-138, 2-(cyclopropylamino)-4-((1s,4s)-4-(3-methylbutanamido)cyclohexylamino)pyrimidine-5-carboxamide], for which the IC50 lay in the range of 800 to 1000 nM.
On the same count and under the same terms, the result for `COC(=O)N1CCC(Nc2ncc(C(N)=O)c(NC3CCCCC3)n2)CC1` [Example A-123, methyl 4-(5-carbamoyl-4-(cyclohexylamino)pyrimidin-2-ylamino)piperidine-1-carboxylate] reads under 200 nM.
The same measure, in the same setting: the result for `CCO[C@H]1CC[C@H](Nc2ncc(C(N)=O)c(N[C@@H]3CCOC3)n2)CC1` [Example A-167, 2-((1r,4R)-4-ethoxycyclohexylamino)-4-((R)-tetrahydrofuran-3-ylamino)pyrimidine-5-carboxamide] reads under 200 nM.
The same measure, in the same setting: the result for `CC(C)Nc1nc(N[C@H]2CC[C@H](OCC(F)(F)F)CC2)ncc1C(N)=O` [Example A-1, 4-(isopropylamino)-2-((1r,4r)-4-(2,2,2-trifluoroethoxy)cyclohexylamino)pyrimidine-5-carboxamide] reads under 200 nM.
Regarding `NC(=O)c1cnc(N[C@H]2CC[C@H](OC(F)F)CC2)nc1N[C@@H]1CCC[C@H]1O` [Example A-4, 2-((1r,4R)-4-(difluoromethoxy)cyclohexylamino)-4-((1R,2R)-2-hydroxycyclopentylamino)pyrimidine-5-carboxamide], the IC50 is under 200 nM.
On the same count and under the same terms, the result for `CO[C@H]1CC[C@H](Nc2ncc(C(N)=O)c(N[C@H]3CC[C@H](CO)C3)n2)CC1` [Example A-98, 4-((1S,3S)-3-(hydroxymethyl)cyclopentylamino)-2-((1r,4S)-4-methoxycyclohexylamino)pyrimidine-5-carboxamide] reads under 200 nM; that for `CCO[C@H]1CC[C@H](Nc2ncc(C(N)=O)c(N[C@@H]3CCCOC3)n2)CC1` [Example A-72, 2-((1r,4R)-4-ethoxycyclohexylamino)-4-((R)-tetrahydro-2H-pyran-3-ylamino)pyrimidine-5-carboxamide], under 200 nM.
